Measured values from patent US20230219904A1 (SYNGENTA CROP PROTECTION AG, priority 2020, published 2023).

How the values were obtained:
Assay type in all cases: in vivo
[1] = tested on: Amaranthus retoflexus (AMARE); assay: Pre-emergence herbicidal glasshouse test (Table B1); conditions: evaluated after 13 days
Experimental: (§1) Seeds of a variety of test species are sown in standard soil in pots (Lolium perenne (LOLPE), Amaranthus retoflexus (AMARE), Abutilon theophrasti (ABUTH), Setaria faberi (SETFA), Echinochloa crus-galh (ECHCG), Ipomoea hederacea (IPOHE)). After cultivation for one day (pre-emergence) or after 8 days cultivation (post-emergence) under controlled conditions in a glasshouse (at 24/16° C., day/night; 14 hours light; 65% humidity), the plants are sprayed with an aqueous spray solution derived from the formulation of the technical active ingredient in acetone/water (50:50) solution containing 0.5% Tween 20 (polyoxyethelyene sorbitan monolaurate, CAS RN 9005-64-5). Compounds are applied at 500 g/h unless otherwise indicated. The test plants are then grown in a glasshouse under controlled conditions in a glasshouse (at 24/16° C., day/night; 14 hours light; 65% humidity) and watered twice daily. After 13 days for pre and post-emergence, the test is evaluated for the percentage damage caused to the plant. The biological activities are shown in the following table on a five-point scale (5=80-100%; 4=60-79%; 3=40-59%; 2=20-39%; 1=0-19%).

[2] = tested on: Echinochloa crus-galh (ECHCG); assay: as above; conditions: evaluated after 13 days
Experimental: as §1

[3] = tested on: Abutilon theophrasti (ABUTH); assay: as above; conditions: evaluated after 13 days
Experimental: as §1

[4] = tested on: Ipomoea hederacea (IPOHE); assay: as above; conditions: evaluated after 13 days
Experimental: as §1

Setaria faberi (SETFA) [5] = assay: as above; conditions: evaluated after 13 days
Experimental: as §1

[6] = tested on: Amaranthus retoflexus (AMARE); assay: Post-emergence herbicidal glasshouse test (Table B1); conditions: evaluated after 13 days
Experimental: as §1

[7] = tested on: Ipomoea hederacea (IPOHE); assay: as above; conditions: evaluated after 13 days
Experimental: as §1

Setaria faberi (SETFA) [8] = assay: as above; conditions: evaluated after 13 days
Experimental: as §1

[9] = tested on: Echinochloa crus-galh (ECHCG); assay: as above; conditions: applied at 125 g/ha, evaluated after 13 days
Experimental: as §1

SMILES	PRE Application AMARE, percentage damage on five-point scale ([1]; applied at 125 g/ha)	PRE Application ECHCG, percentage damage on five-point scale ([2]; applied at 125 g/ha)	PRE Application ABUTH, percentage damage on five-point scale ([3]; applied at 125 g/ha)	PRE Application IPOHE, percentage damage on five-point scale ([4]; applied at 125 g/ha)	PRE Application SETFA, percentage damage on five-point scale (Setaria faberi (SETFA) [5]; applied at 125 g/ha)	POST Application AMARE, percentage damage on five-point scale ([6]; applied at 125 g/ha)	POST Application IPOHE, percentage damage on five-point scale ([7]; applied at 125 g/ha)	POST Application SETFA, percentage damage on five-point scale (Setaria faberi (SETFA) [8]; applied at 125 g/ha)	POST Application ECHCG, percentage damage on five-point scale [9]	PRE Application AMARE, percentage damage on five-point scale ([1]; applied at 500 g/h)	PRE Application ECHCG, percentage damage on five-point scale ([2]; applied at 500 g/h)	PRE Application ABUTH, percentage damage on five-point scale ([3]; applied at 500 g/h)	PRE Application IPOHE, percentage damage on five-point scale ([4]; applied)	PRE Application SETFA, percentage damage on five-point scale (Setaria faberi (SETFA) [5]; applied at 500 g/h)	POST Application AMARE, percentage damage on five-point scale ([6]; applied at 500 g/h)	POST Application IPOHE, percentage damage on five-point scale ([7]; applied at 500 g/h)	POST Application SETFA, percentage damage on five-point scale (Setaria faberi (SETFA) [8]; applied at 500 g/h)
CCOCC(=O)Nc1c(OC(F)(F)F)ccc(C(=O)Nc2nnnn2C)c1Cl [Compound 1.066]	5 (5=80-100%)	5 (5=80-100%)	5 (5=80-100%)	5 (5=80-100%)	4 (4=60-79%)	4 (4=60-79%)	4 (4=60-79%)	4 (4=60-79%)									
CCC(=O)N(C)c1c(OC(F)F)ccc(C(=O)Nc2nnnn2CC)c1Cl [Compound 1.097]	5 (5=80-100%)	5 (5=80-100%)	5 (5=80-100%)	5 (5=80-100%)	4 (4=60-79%)	4 (4=60-79%)	4 (4=60-79%)	5 (5=80-100%)	4 (4=60-79%)								
COc1ccccc1C(=O)Nc1c(OC(F)(F)F)ccc(C(=O)Nc2nnnn2C)c1Cl [Compound 1.056]	3 (3=40-59%)	1 (1=0-19%)	5 (5=80-100%)		3 (3=40-59%)	4 (4=60-79%)	4 (4=60-79%)	4 (4=60-79%)	4 (4=60-79%)								
CCn1nnnc1NC(=O)c1ccc(OC(F)F)c(NC(=O)c2cc(OC)ccn2)c1Cl [Compound 1.080]	4 (4=60-79%)	1 (1=0-19%)	1 (1=0-19%)	2 (2=20-39%)	1 (1=0-19%)	4 (4=60-79%)	4 (4=60-79%)	4 (4=60-79%)									
CCC(=O)Nc1c(OC(F)(F)C(F)F)ccc(C(=O)Nc2nnnn2C)c1Cl [Compound 1.109]										5 (5=80-100%)	4 (4=60-79%)	5 (5=80-100%)	5 (5=80-100%)	4 (4=60-79%)	5 (5=80-100%)	5 (5=80-100%)	5 (5=80-100%)
Cn1nnnc1NC(=O)c1ccc(OC(F)F)c(NC(=O)c2ncccc2Cl)c1Cl [Compound 1.092]	5 (5=80-100%)		5 (5=80-100%)	3 (3=40-59%)	5 (5=80-100%)	3 (3=40-59%)	4 (4=60-79%)	4 (4=60-79%)									
